Measured values published in patent US20220265657A1, “ADMINISTRATION METHOD AND DOSAGE REGIMEN FOR TREATMENT OF NEURODEGENERATIVE DISEASES USING TRAMETINIB AND MARKERS” (GENUV INC., priority 2019, published 2022).

Legend:
MEK1/2 = assay: Western blot of pERKs and ERKs in whole brain lysates of normal mice; type: in vivo; settings: 0.1 mg/kg/day oral
Protocol: Trametinib treatment: Trametinib (Medchemexpress, Monmouth Junction, N.J.) was micronized and suspended in the vehicle containing 5% mannitol, 1.5% hydroxypropyl methylcellulose and 0.2% sodium lauryl sulfate. For pharmacokinetic analysis, 0.05, 0.2 and 0.8 mg/kg of trametinib were orally administered to 7-week-old normal mice (ICR, n=5 per group) as a single administration. […] For studies on the change in pERK expression in normal mice and whole cell RNA sequencing study, 0.1 mg/kg/day of trametinib (in 4% DMSO+96% corn oil) was orally administered to 6-week old C57BL/6 mice (n=3 per group). Mice were sacrificed after 1, 2, 3, or 4 weeks of administration. 5XFAD mice (male, n=7˜10 per group) were divided into vehicle and trametinib treated groups. 12-month old mice received vehicle or 0.1 mg/kg of trametinib for 1 month by oral gavage once a day (These mice are referred to as “13-month old 5XFAD mice” in the Examples). […] Blood was obtained after completion of treatment.
Lysates were centrifuged at 13,000 rpm for 20 min at 4° C., and the protein content in the supernatant was determined using the Bradford assay (Bio-rad, Hercules, Calif.). For subcellular fractionation, cells were lysed with lysis buffer (250 mM Sucrose, 20 mM HEPES, pH 7.4, 10 mM KCl, 1.5 mM MgCl2, 1 mM EGTA, 1 mM EDTA, 1 mM DTT) containing protease inhibitor for 30 min on ice, followed by centrifugation at 720 g for 5 min at 4° C. Supernatants were centrifuged at 15,000 rpm for 10 min at 4° C., and the resulting supernatant was used as the cytosol fraction. After centrifugation at 720 g for 5 min, pellets were washed with lysis buffer and dissolved in nuclear lysis buffer (50 mM Tris HCl, pH 8.0, 150 mM NaCl, 1% NP40, 0.5% sodium deoxycholate, 0.1% SDS, 10% glycerol) as the nuclear fraction. Protein from each sample was subjected to 8%˜15% SDS-PAGE, and the resolved proteins were transferred to nitrocellulose or polyvinylidene fluoride membrane. The membranes were blocked with 5% nonfat milk powder in Tris-buffered saline/Tween 20 (TBST) for 1 h at room temperature, then incubated with anti-phospho-ERK (Cell signaling), anti-ERK (Cell signaling), anti-LAMP1 (Abcam), anti-LC3 (Cell signaling), anti-cathepsin B (Cell signaling), anti-p62 (Cell signaling), anti-p62 (5114, Cell signaling), anti-phospho-mTOR (5536, Cell signaling), anti-mTOR (2983, Cell signaling), anti-phospho-ULK1 (14202, Cell signaling), anti-ULK1 (8054, Cell signaling), anti-TFEB (852501, Biolegend), and anti-GAPDH (Cell signaling) overnight at 4° C. After washing, membranes were incubated with horseradish peroxidase-conjugated goat anti-rabbit IgG antibody (Thermo) or goat anti-rat IgG antibody (Thermo) for 2 h at room temperature. […] The detected signals were quantified using a LAS-4000 system (Fuji Film, Tokyo, Japan).

primary cortical neurons = assay: Dendritic spine formation in primary cortical neurons; type: cell-based, ICR mice
Protocol: Cell culture: SH-SY5Y neuroblastoma cells were cultured at 37° C., 5% CO2., in Dulbecco's Modified Eagle Medium/Ham's F-12 nutrient mixture (DMEM/F12) (Invitrogen, Carlsbad, Calif.) supplemented with 10% heat-inactivated fetal bovine serum containing 100 units/ml penicillin, 100 μg/ml streptomycin. Primary cortical neuron cultures were derived from embryo day 18 (E18) from ICR mice. The dissociated cells were plated on glass cover slips coated with poly-D-lysine in Neurobasal medium supplemented with 2% B27 (Invitrogen), 100 units/ml penicillin, 100 μg/ml streptomycin, and 2 mM L-glutamine. Primary NSCs from normal mice were isolated from the subventricular zone (SVZ) of 8 week-old C57BL/6 mice brain. NSCs from adult Tg2576 mice brain were obtained from Seoul National University Hospital. The neurospheres were cultured as previously described (M. Y. Kim, B. S. Moon, K. Y. Choi, Isolation and maintenance of cortical neural progenitor cells in vitro. Methods Mol Biol 1018, 3-10 (2013)). For neurosphere culture from normal mice, the cells were dissociated from brain tissue and grown in N2 medium in 25 cm^2 flasks (SPL, Gyeonggi-do, Korea) in suspension. bFGF (20 ng/ml, Peprotech, Princeton, N.J.) and human EGF (20 ng/ml, Peprotech) were added to the media to allow the cells to form neurospheres. For analyses, NSCs were cultured as a monolayer. For differentiation of NSCs, the neurospheres were dissociated with TrypLE (Invitrogen), plated on 15 μg/ml poly-L-ornithine-(Sigma-Aldrich, St. Louis, Mo.) and 10 μg/ml fibronectin (Gibco)-coated plates, and cultured in bFGF- and EGF-depleted N2 medium for 2 days. For neurosphere culture from Tg2576 mice, the cells were grown in DMEM/F12 supplemented with B27 supplements in 75 cm^2 flasks (SPL) in suspension. bFGF (10 ng/ml) and human EGF (10 ng/ml) were added to the media to allow the cells to form neurospheres. […]

With CC(=O)Nc1cccc(-n2c(=O)n(C3CC3)c(=O)c3c(Nc4ccc(I)cc4F)n(C)c(=O)c(C)c32)c1 [trametinib] the “decrease of p-ERKs/ERKs ratio compared to vehicle treated group” value (shortened to “decrease of p-ERKs/ERKs ratio”) (MEK1/2; 1 week administration) was 22.5%, the “decrease of p-ERKs/ERKs ratio” value (MEK1/2; 2 week administration) was 33.7% and the “decrease of p-ERKs/ERKs ratio” value (MEK1/2; 3 week administration) was 50%. The “decrease of p-ERKs/ERKs ratio” value (MEK1/2; 4 week administration) was 45.6%, the “increase in number of dendritic spines compared to vehicle treated group” value (primary cortical neurons; 100 nM) was 24% and the “increase in number of dendritic spines compared to Aβ1-42 treated alone group” value (primary cortical neurons; Aβ1-42 oligomer-induced neurotoxic conditions) was 80%.
